Test results published in article PMC8041284, “Tunable Methacrylamides for Covalent Ligand Directed Release Chemistry” (Journal of the American Chemical Society, 2021).

Target: BTK (Homo sapiens, UniProt Q06187)
Assay: biochemical
Settings: read-out: BTK inhibition (%)

Chain of BTK (Q06187 402-655 limits assumed): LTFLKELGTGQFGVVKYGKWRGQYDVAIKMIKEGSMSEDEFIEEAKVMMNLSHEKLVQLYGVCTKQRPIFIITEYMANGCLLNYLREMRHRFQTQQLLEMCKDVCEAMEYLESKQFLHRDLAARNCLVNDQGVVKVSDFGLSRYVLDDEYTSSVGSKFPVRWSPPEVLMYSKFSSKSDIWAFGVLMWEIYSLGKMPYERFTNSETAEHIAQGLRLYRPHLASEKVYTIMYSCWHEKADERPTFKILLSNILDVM

Point of comparison: Cl[Te]1(Cl)(Cl)OCCO1 [PCM-0215721], inhibition at 10 µM 98.6%. Against it:
- C[C@@H]1CC[C@@]2(NC1)O[C@H]1C[C@H]3[C@@H]4CC=C5C[C@@H](O[C@@H]6O[C@H](CO)[C@@H](O[C@@H]7O[C@@H](C)[C@H](O)[C@@H](O)[C@H]7O)[C@H](O)[C@H]6O)CC[C@]5(C)[C@H]4CC[C@]3(C)[C@H]1[C@@H]2C [PCM-0216606] — lower, -6.9%
- O=C(C[S+]([O-])C(c1ccccc1)c1ccccc1)NO (stereo not shown) [PCM-0216068] — lower, -2.3%

Same assay, conditions: read-out: BTK inhibition (%), 0.75 uM BTK, […] probe 3l, 15 min preincubation

Point of comparison: CO[C@H]1C[C@H](O[C@H]2[C@H](C)O[C@@H](O[C@@H]3/C(C)=C/C[C@@H]4C[C@@H](C[C@]5(C=C[C@H](C)[C@@H](C6CCCCC6)O5)O4)OC(=O)[C@@H]4C=C(C)[C@@H](O)[C@H]5OC/C(=C\C=C\[C@@H]3C)[C@]54O)C[C@@H]2OC)O[C@@H](C)[C@@H]1O [PCM-0215971], inhibition at 10 µM 44%. Against it:
- CC(=O)Nc1nc(C)c(-c2ccc(Cl)c(S(=O)(=O)NCCO)c2)s1 [PCM-0095173] — lower, -10.3%
- COC(=O)C1=C(C)NC(C)=C(C(=O)OCCN(C)Cc2ccccc2)C1c1cccc([N+](=O)[O-])c1 (stereo not shown) [PCM-0064729] — higher, 47.5%
- NC(=O)c1cccc(-c2cccc(OC(=O)NC3CCCCC3)c2)c1 [PCM-0095495] — lower, -6.2%
- O=c1sn(-c2cccc3ccccc23)c(=O)n1Cc1ccccc1 [PCM-0095450] — lower, -12.4%
- CC(C)(C)S(=O)(=O)c1ccc2nccc(Nc3n[nH]c4ccc(F)cc34)c2c1 [PCM-0213348] — lower, 26.2%
- COC(=O)C1=C(C)NC(C)=C(C(=O)OC(C)C)C1c1cccc2nonc12 (stereo not shown) [PCM-0086297] — lower, -2.3%
- CN1CCN(c2nc3ccccc3nc2Cl)CC1 [PCM-0095510] — lower, -6.2%
- CN1C(C(=O)Nc2ccccn2)=C(O)c2sccc2S1(=O)=O [PCM-0086073] — lower, -6.9%
- COc1cc2oc(=O)ccc2cc1O [PCM-0216502] — lower, -10%
- CO[C@H]1[C@@H](O)[C@H](O[C@@H]2[C@@H](C)O[C@@H](O[C@H]3CC[C@@]4(C)[C@@H](CC[C@@]56O[C@@]57CC[C@@H](C(C)=O)[C@@]7(C)[C@H](OC(C)=O)[C@@H](OC(=O)c5ccccc5)[C@H]46)C3)C[C@H]2OC)O[C@H](C)[C@H]1O [PCM-0216600] — lower, -12.4%
- N[C@@H](C(=O)N[C@@H]1C(=O)N2C(C(=O)O)=C(Cl)CS[C@H]12)c1ccccc1 [PCM-0214861] — lower, -13.2%
- CN(C[C@@H]1COCCO1)S(=O)(=O)Nc1ccc2ccc3ncc(-c4cnn(C)c4)cc3c(=O)c2c1 [PCM-0095338] — lower, 33.1%
- C[C@@H]1CC(=O)NN=C1c1ccc(NN=C(C#N)C#N)cc1 [PCM-0090272] — lower, 21.8%
- CN(C)Cc1cccc(N=C(c2ccccc2)c2c(O)[nH]c3cc(C(=O)N(C)C)ccc23)c1 [PCM-0095091] — lower, 1.4%
- CO/N=C(\C(=O)N[C@@H]1C(=O)N2C(C(=O)O)=C(Cn3ccc(=N)n3CCO)CS[C@H]12)c1csc(N)n1 [PCM-0215184] — lower, 9.4%
- CC[C@H](Nc1ncnc2nc[nH]c12)c1nc2cccc(F)c2c(=O)n1-c1ccccc1 [PCM-0095266] — lower, -5.5%
- O=C[C@H](O)[C@@H](O)[C@H](O[C@H]1O[C@H](CO)[C@@H](O[C@H]2O[C@H](CO)[C@@H](O[C@H]3O[C@H](CO)[C@@H](O[C@H]4O[C@H](CO)[C@@H](O)[C@H](O)[C@H]4O)[C@H](O)[C@H]3O)[C@H](O)[C@H]2O)[C@H](O)[C@H]1O)[C@H](O)CO [PCM-0216396] — lower, 3.1%
- C=CC(=O)N1CC/C(=C\c2ccc(F)c([N+](=O)[O-])c2)C(=O)/C(=C/c2ccc(F)c([N+](=O)[O-])c2)C1 [PCM-0215820] — lower, 31.7%
- CCCCCCCCCCCCCC(=O)O [PCM-0216589] — lower, 1.7%
- COc1ccc2[nH]c(=O)oc2c1 [PCM-0216501] — lower, -4.6%
- CCCCCCCCCCCCCCCC(=O)OC[C@H](O)[C@H]1OC(=O)C(O)=C1O [PCM-0095304] — lower, -34.2%
- O=C1C(Cl)=C(N2CCOCC2)C(=O)N1c1ccc(Cl)c(Cl)c1 [PCM-0215236] — lower, -0.8%
- Cc1ccc(S(=O)(=O)n2c(N)nc3ccccc32)cc1 [PCM-0095508] — lower, -3.1%
- CN(C)c1ccc(C(=C2C=CC(=[N+](C)C)C=C2)c2ccc(N(C)C)cc2)cc1 [PCM-0090111] — higher, 116%
- CNC(=O)c1ccc2cc([C@@]3(O)CCn4cncc43)ccc2c1 [PCM-0095080] — lower, 3.1%
- C=CC(=O)Nc1ccc2ncnc(Nc3ccc(OCc4cccc(F)c4)c(Cl)c3)c2c1 [PCM-0095229] — higher, 110%
- O=C(CCCCCCNC(=O)c1cnc(N(c2ccccc2)c2ccccc2Cl)nc1)NO [PCM-0214593] — lower, -6.9%
- NC(=O)C[C@H](N)C(=O)O [PCM-0216200] — lower, 13.6%
- COc1cc(C[C@H](C)[C@H](C)Cc2ccc3c(c2)OCO3)ccc1O [PCM-0216424] — higher, 68.7%
- C=C1CCC[C@]2(C)Cc3occ(C)c3C[C@@H]12 [PCM-0216433] — lower, 2.3%
- Clc1ccc(C(c2c[nH]c3ccccc23)c2c[nH]c3ccccc23)cc1 [PCM-0215640] — higher, 71.7%
- CCC(=O)O[C@]1(C(=O)CCl)[C@@H](C)C[C@H]2[C@@H]3CCC4=CC(=O)C=C[C@]4(C)[C@@]3(F)[C@@H](O)C[C@@]21C [PCM-0086533] — lower, 3.4%
- NC(N)=NCCCC[C@H](N)C(=O)O [PCM-0216161] — lower, -8.5%
- O=C(N[C@@H](c1ccccc1)[C@@H](O)C(=O)O)c1ccccc1 [PCM-0216301] — lower, 9.3%
- Cc1cc(SCc2sc(-c3ccc(C(F)(F)F)c(F)c3)nc2C)ccc1OCC(=O)O [PCM-0095608] — lower, -5.4%
- CO[C@@H](C)Cn1c(=O)n(C)c2cnc3ccc(-c4cncc(C(C)(C)O)c4)cc3c21 [PCM-0215675] — lower, -11%
- O=C(O)[C@H]1CSC(c2nc3ccc(O)cc3s2)=N1 [PCM-0215581] — lower, -16.2%
- CC(C)(O)CC[C@@H](O)[C@](C)(O)[C@H]1CC[C@@]2(O)C3=CC(=O)[C@@H]4C[C@@H](O)[C@@H](O)C[C@]4(C)[C@H]3CC[C@]12C [PCM-0095305] — lower, 6.2%
- CC(C)=CCC[C@@](C)(O)[C@H]1CC[C@]2(C)[C@@H]1[C@H](O)C[C@@H]1[C@@]3(C)CC[C@H](O[C@@H]4O[C@H](CO)[C@@H](O)[C@H](O)[C@H]4O)C(C)(C)[C@@H]3CC[C@]12C [PCM-0216344] — lower, -23.2%
- CC(C)n1ncnc1-c1cn2c(n1)-c1ccc(O[C@@H](C)C(N)=O)cc1OCC2 [PCM-0215832] — lower, -8.3%
- CCCc1nc(C)c2c(=O)[nH]c(-c3cc(S(=O)(=O)N4CCN(CC)CC4)ccc3OCC)nn12 [PCM-0086229] — lower, -10.9%
- Cc1[nH]c2ccccc2c1CCNC(=O)c1cccs1 [PCM-0095767] — lower, -6.9%
- C[C@@H]1O[C@@H](O[C@H]2[C@H](O[C@H]3C[C@]4(C)[C@H](C[C@@H](O)[C@@H]5[C@@H]([C@]6(C)CC[C@H](C(C)(C)O)O6)CC[C@]54C)[C@@]4(C)CC[C@H](O)C(C)(C)[C@H]34)O[C@H](CO)[C@@H](O)[C@@H]2O)[C@H](O)[C@H](O)[C@H]1O [PCM-0216458] — lower, 1.5%
- CCCCCCCCCCCC[N+](C)(C)CCOc1ccccc1 [PCM-0214763] — lower, -14.8%
- Cc1ccccc1-n1c(Cn2ncc3c(N)ncnc32)nc2cccc(C)c2c1=O [PCM-0095248] — lower, 4.1%
- C=C1C2CCC(C2)C1(C)C (stereo not shown) [PCM-0216213] — lower, 18.5%
- O=C(Nc1ccc(Cl)cc1)C1CCCN(C(=O)c2cccc(-c3ccco3)c2)C1 (stereo not shown) [PCM-0102067] — lower, 40.9%
- CCNC(=O)c1noc(-c2cc(Cl)c(O)cc2O)c1-c1ccc(OC)cc1 [PCM-0215317] — lower, 11.6%
- OC[C@H]1O[C@@H](Oc2c(O)cc(O)cc2/C=C/c2ccc(O)cc2)[C@H](O)[C@@H](O)[C@@H]1O [PCM-0215025] — lower, 9.7%
- O=C(Nc1nccs1)C(c1cc(F)ccc1O)N1Cc2ccccc2C1=O (stereo not shown) [PCM-0215692] — lower, 13.8%
- CC1(C)S[C@@H]2[C@H](NC(=O)[C@H](N)c3ccccc3)C(=O)N2[C@H]1C(=O)OCOC(=O)[C@@H]1N2C(=O)C[C@H]2S(=O)(=O)C1(C)C [PCM-0216243] — lower, -11.6%
- O=C1c2cccc3c2[C@H](CCC3)CN1[C@@H]1CN2CCC1CC2 [PCM-0095539] — lower, 4.3%
- CNC(=O)c1c(F)cccc1Nc1nc(Nc2cc3c(cc2OC)CCN3C(=O)CN(C)C)nc2[nH]ccc12 [PCM-0095412] — lower, 13.8%
- Cc1cc(C)nc(NS(=O)(=O)c2ccc(NC(=S)NC(=O)COc3ccc(Br)cc3Cl)cc2)n1 [PCM-0095801] — higher, 59.5%
- Cc1ccc(OCC(O)C(C)NC(C)C)c2c1CCC2 (stereo not shown) [PCM-0215619] — lower, 13.9%
- CC(=O)OC(C)C(C)C(=O)OC[C@@]12[C@H]3C[C@]4(C)C(=CC[C@@H]5[C@@]6(C)CC[C@H](O[C@@H]7O[C@H](C(=O)O)[C@@H](O[C@@H]8O[C@H](CO)[C@@H](O)[C@H](O)[C@H]8O)[C@H](O)[C@H]7O[C@@H]7OC[C@@H](O)[C@H](O)[C@H]7O)[C@@](C)(CO)[C@@H]6CC[C@]54C)[C@@H]1CC(C)(C)[C@H](O3)[C@@H]2O (stereo partly shown) [PCM-0215924] — lower, 5.1%
- Cc1cnc(NC(=O)C2=C(O)c3ccccc3S(=O)(=O)N2C)s1 [PCM-0086060] — lower, -6.2%
- C[C@]12CC[C@@H]3c4ccc(O)cc4CC[C@H]3[C@@H]1C[C@@H](O)[C@@H]2O [PCM-0086283] — lower, 5.4%
- CN(CCO)CC(O)Cn1cnc2c1c(=O)n(C)c(=O)n2C (stereo not shown) [PCM-0215123] — lower, 9.3%
- Cc1cc(=O)oc2c(C=O)c(O)ccc12 [PCM-0215276] — higher, 82.6%
- C=C1c2cccc(O)c2C(O)=C2C(=O)[C@]3(O)C(O)=C(C(N)=O)C(=O)[C@@H](N(C)C)[C@@H]3[C@@H](O)[C@H]12 [PCM-0215189] — lower, 17%
- CC(=O)O[C@H]1C[C@@]2(C)[C@@H](C[C@@H](O)[C@H]3[C@@]4(C)CC[C@@H](O)[C@@H](C)[C@@H]4CC[C@@]32C)/C1=C(\CCC=C(C)C)C(=O)O [PCM-0214838] — lower, 6.2%
- CC(=O)[C@@]1(O)CC[C@H]2[C@@H]3C[C@H](C)C4=CC(=O)CC[C@]4(C)[C@H]3CC[C@@]21C [PCM-0214898] — lower, -7.8%
